Results reported in patent EP0642504B1 (priority 1991, dated 1993).
Marks after values point to notes of the source that are not given here.

Tests used:
[1] = test system: Arachidonic Acid-Induced Paw Edema; test: Arachidonic acid-induced paw edema (water displacement); format: in vivo, CD-1 female mice; conditions: oral, 30 min after arachidonic acid (1.0 mg s.c.), vs vehicle treated controls
Method: The induction of paw edema in rodents by injection of arachidonic acid has been used as an experimental model for inflammation [Calhoun, W., et al., Agents and Actions, 21, 306 (1987)]. Prior administration of non-steroidal anti-inflammatory drugs (NSAIDs) in many cases leads to a dose related inhibition of the edematous response which may be considered a predictor of clinical efficacy.
(§1) The conditions were based on those reported previously [Calhoun et al., ibid.]. […] PAF (1.0 µg) or arachidonic acid (1.0 mg) dissolved in 50 µl of 5% ethanol in saline, were injected s.c. into the plantar surface of the right hind paw of CD-1 female mice (20-25 g) obtained from Charles River Labs. The mice were under ether anesthesia during this procedure. The volume of the right foot was measured to the level of the lateral malleous by water displacement before treatment and 15 min after PAF injection or 30 min after archidonate injection. The change in paw volume was calculated for each mouse and the significance for each group was determined by a paired t test analysis.

[2] = test system: N-methyl-D-aspartate (NMDA) induced lethality; test: Protection against NMDA induced lethality; format: in vivo, Balb/c male mice; conditions: 90 min before NMDA (125 mg/kg) s.c., no drug 0/20
Excerpt: (§2) The present compounds are active in several tests generally used to indicate neuroprotection.

[3] = test system: PAF-Induced Paw Edema; test: PAF-induced paw edema (water displacement); format: in vivo, CD-1 female mice; conditions: oral, 15 min after PAF (1.0 µg s.c.), vs vehicle treated controls
Method: A second model, in which edema is induced by platelet activating factor (PAF), was used to evaluate activity.
as §1

[4] = Solubility in the oocyte test medium; format: physicochemical
Method: Several NMDA receptor blockers were tested. These compounds have very low solubility and have to be dissolved in 100% dimethyl sulfoxide (DMSO) and diluted for use in ND 96 that contained 1% DMSO. Therefore, the effect of 1% DMSO on the response to 10-^4 M NMDA and 5x10-^6 M glycine was examined. DMSO had no effect on NMDA response in three different cells.
The effect of HU-245 was reversible upon return to ND 96 solution.

[5] = test system: mouse; test: Ring test for cataleptic effects; format: in vivo; conditions: 5-min test period, vehicle 7.7 ± 4.4
Method: The lack of CNS activity for the compounds described herein may be seen from the data shown in Table V. This was measured by the so-called "ring test" [Pertwee, R.G., et al., J. Pharmacol., 46, 753 (1972)] in which the cataleptic effects of cannabinoids can be quantitated. The compounds produced little or no response when compared with the parent drug.
The cataleptic response was measured using the ring test. Mice were placed on a horizontal wire ring 5.5 cm in diameter, which was attached to a 16 cm vertical rod. The hind paws and fore paws were placed at opposite sides of the ring. It is important that the ambient temperature is maintained at 30°C and that the environment be free of auditory stimuli and bright lights. The criteria for immobility are detailed by Pertwee. The response is calculated as the fraction of time the mouse is immobile over a 5-min test period. Measurements were always done between 2 and 4 p.m. and the animals were used only once.

[6] = test system: NMDA receptor; test: NMDA-blocking response in Xenopus oocytes injected with rat brain RNA (two-electrode voltage clamp); format: cell-based
Excerpt: The oocyte is the most widely used system for studying the molecular, biophysical and pharmacological properties of expressed voltage- or transmitter-operated ion channels. This giant cell offers several advantages for this type of studies. It can be readily used for two-electrode voltage clamp studies, translates injected mRNA from different sources and functionally expresses the translated proteins, and it is also readily amenable for intracellular microinjections. Importantly, the recordings of transmitter- or voltage-incuded currents in a single oocyte are extremely stable and can be done, without rundown, for 2-3 hours; this allows the performance of a full dose-response relation in single oocytes.
Neuronal receptors for excitatory amino acid (EAA) are becoming increasingly important for the understanding of normal and pathological brain function. Quantitative pharmacological studies of EAA receptor/ion channel complex are difficult to study in neurons. Therefore, Xenopus oocyte injected with brain mRNA is now the preparation of choice.
The response to N-methyl-D-aspartate (NMDA) in oocytes injected with rat brain mRNA was characterized and the effects of HU-245 were studied.
Female Xenopus were anesthetized by immersion in water containing 0.15% tricaine methanesulfonate and a small incision was made in the lower adbomen. Ovary fragments were removed into ND-96. […]

[7] = test system: picrotoxin induced lethality; test: Protection against picrotoxin induced lethality; format: in vivo, Balb/c male mice; conditions: drug 10 mg/kg, 120 min before picrotoxin (8 mg/kg) s.c.; no drug 0/17
Excerpt: as §2

[8] = test system: strychnine induced lethality; test: Protection against strychnine induced lethality; format: in vivo; conditions: rats
Excerpt: as §2

[9] = test system: intraocular pressure; test: Reduction of intraocular pressure (anti-glaucoma activity); format: in vivo, rabbits; conditions: 50 µl drop of a 1% emulsion into the rabbit eye
Method: Reduction of intraocular pressure in rabbits was determined by the addition of a 50 µl drop of a 1% emulsion of the cannabinoid into the rabbit eye. This test is a measure of anti-glaucomatic activity.

Compound: CCCCCCC(C)(C)c1cc(OC(C)=O)c2c(c1)OC(C)(C)[C@H]1CC=C(C(=O)O)C[C@H]21 [HU-245, (3S,4S)-THC-DMH-7-oic acid, acetate]
- percent inhibition of paw edema ([1]; dose 0.050 mg.kg): 35.7 (N.S.) percent
- percent inhibition of paw edema ([1]; dose 0.100 mg.kg): 50.1* percent
- percent inhibition of paw edema ([1]; dose 0.250 mg.kg): 48.2* percent
- percent inhibition of paw edema ([1]; dose 0.55 mg.kg): 42.2 (N.S.) percent
- Survival rate (number of survivors out of total number of animals used) ([2]; drug 2.5 mg/kg): 6/12
- Survival rate (number of survivors out of total number of animals used) ([2]; drug 10 mg/kg): 8/10
- percent inhibition of paw edema ([3]; dose 0.10 mg/kg): 37.3* percent
- percent inhibition of paw edema ([3]; dose 0.25 mg/kg): 66.9* percent
- percent inhibition of paw edema ([3]; dose 0.5 mg/kg): 72.0* percent
- solubility compared with prior art compounds [4]: higher than that of prior art compounds
- solubility ([4]; nd 96 with 1% dmso, organic solvent or mixture, ND 96 containing 1% DMSO, read-out: solubility (soluble at a concentration of up to)): ≤ 0.1 µM
- Response ± SD (means of the fraction of time the mice remained immobile) ([5]; dose 0.5 mg/kg): 6.8 ± 2.4
- Response ± SD (means of the fraction of time the mice remained immobile) ([5]; dose 1.0 mg/kg): 12.0 ± 6.0
- response to NMDA ([6]; 10-^6M compound, 10-^4 M NMDA and 5x10-^6 M glycine, membrane potential -60mV, 1 µM): 55 % of control
- reversibility of the effect on the NMDA response ([6]; upon return to ND 96 solution): reversible
- Survival rate (number of survivors out of total number of animals used) [7]: 5/8
- protection against strychnine induced lethality [8]: protects against strychnine induced lethality
- Reduction of intraocular pressure [9]: Significant reduction
